Assay results from patent US20110217265A1, “Screening for Inhibitors of HCV Amphipathic Helix (AH) Function” (priority 2008, published 2011).

Columns and labels:
2a HCV RNA replicon = 2a HCV RNA replicon assay (FL-J6/JFH-5'C19Rluc2AUbi, luciferase); type: cell-based, Hepatitis C Virus genotype 2a; details: Hepatitis C virus, read-out: 2a (%) Percent of virus activity remaining in the presence of the compound
Source text: Plasmids. Bart79I, a high-efficiency subgenomic replicon of HCV (28), harbors the neomycin resistance gene (neo) and the HCV nonstructural proteins. The Bart-Luciferase plasmid, Bart79I-luc, was cloned from the Bart791 parent (29) and the pGL3-Basic parent (Promega). In brief, a NotI site was introduced after the 15th amino acid of Core in Bart791 using PCR mutagenesis. The plasmid pcDNA3.1-NS4B, which encodes the Con1 NS4B sequence and was used to study the protein stability of the wild type and mutant NS4Bs, was described previously. To introduce the M2 mutation into the 4BAH2 of plasmids encoding HCV replicons or NS4B, the nucleotide sequence GCG that encodes for alanine at NS4B amino acid position 51 was changed to GAG (encoding for glutamate) and the nucleotide sequence TGG that encodes for tryptophan at amino acid position 55 was changed to GAT (encoding for aspartate) through the use of Quick-ChangeTMXL site-directed mutagenesis kit (Stratagene, La Jolla, Calif.) as described by the manufacturer and confirmed by sequencing. FL-J6/JFH-5′C19Rluc2AUbi, which is a monocistronic, full-length HCV genome that expresses Renilla luciferase (Rluc) and was derived from the previously described infectious genotype 2a HCV genome J6/JFH1.
(§1) Antiviral Assays of Compounds. Subconfluent Huh7.5 cells were trypsinized and collected by centrifugation at 700 g for 5 min. The cells were then washed three times in ice-cold RNasefree PBS buffer (BioWhittaker) and resuspended at 1.5×10^7 cells·ml^−1 in PBS buffer. Wild-type FL-J6/JFH-5′C19Rluc2AUbi and Bart79I-luc RNAs for electroporation were generated by in vitro transcription of XbaI (FL-J6/JFH-5′C19Rluc2AUbi) and ScaI (Bart791-luc)-linearized DNA templates using the T7 MEGAscript kit (Ambion), followed by phenol-chloroform purification and DEPC water suspension, 5 μg of RNA were mixed with 400 μl of washed Huh7.5 cells in a 2-mm-gap cuvette (BTX) and immediately pulsed (0.82 kV (FL-J6/JFH-5′C19Rluc2AUbi) and 0.68 kV (Bart79I-luc), five […] pulses) with a BTX-830 electroporator. After 10 min recovery at 25° C., pulsed cells were diluted into 20 ml of pre-warmed growth medium. Cells from several electroporations were pooled to a common stock and seeded in 96-well plates (17,000-20,000 cells per well). After 24 hr, compounds were added to the cells and media changes were performed daily with fresh compounds. After 72 hr of treatment, cells were incubated for 2 hr at 37° C. in the presence of 10% Alamar Blue reagent (TREK Diagnostic Systems) to assess for cytotoxicity. Plates were then scanned and fluorescence was detected by using a FLEXstation II 384 (Molecular Devices). The signal was normalized relative to untreated samples. Viral RNA replication was determined using Renilla (FL-J6/JFH-5′C19Rluc2AUbi) or firefly (Bart791-luc) luciferase assays, according to the manufacturer's (Promega) directions. The same samples subjected to the viability assay described below were analyzed in this assay. According to the manufacturer protocol, cells were washed with PBS buffer and shaken at room temperature for 15 min in 20 μl of lysis buffer. Reporter assays were performed directly in the wells of the culture plates by injecting 100 μl of the assay substrate into each well. Luminescence was measured over 10 seconds with a 2-second delay using a Berthold LB 96 V luminometer. Signal was normalized relative to untreated samples or samples grown in the presence of the corresponding concentration of DMSO. Experiments were repeated three times, each time with 4 replicates.

Huh7.5 cells = assay: Alamar Blue cell viability assay; type: cell-based, human
Procedure: as §1, with “Plates were then scanned and fluorescence was detected by using a FLEXstation II 384 (Molecular Devices).” left out

## Cc1cncc(NC(=O)c2nc(Cl)c(N(C)CC(C)C)nc2N)c1 [ID 296, 3-amino-6-chloro-5-(isobutyl(methyl)amino)-N-(5-methylpyridin-3-yl)pyrazine-2-carboxamide bis(2,2,2-trifluoroacetate)]
2a HCV RNA replicon
  activity at 5 µM: 52%
  activity at 10 µM: 18%
Huh7.5 cells; 5 μM
  Cell Viability (%), alamar blue: 100%
Huh7.5 cells; 10 μM
  Cell Viability (%), alamar blue: 76%

## CC(C)CN(C)c1nc(N)c(C(=O)NCc2ccccn2)nc1Cl.Cl [ID 204, 3-amino-6-chloro-5-(isobutyl(methyl)amino)-N-(pyridin-2-ylmethyl)pyrazine-2-carboxamide hydrochloride]
2a HCV RNA replicon
  activity at 5 µM: 66%
  activity at 10 µM: 60%
Huh7.5 cells; 5 μM
  Cell Viability (%), alamar blue: >100%
Huh7.5 cells; 10 μM
  Cell Viability (%), alamar blue: 99%

## CC(C)CN(C)c1nc(N)c(C(=O)Nc2ccncc2)nc1Cl.Cl [ID 203, 3-amino-6-chloro-5-(isobutyl(methyl)amino)-N-(pyridin-4-yl)pyrazine-2-carboxamide hydrochloride]
2a HCV RNA replicon
  activity at 5 µM: 68%
  activity at 10 µM: 59%
Huh7.5 cells; 5 μM
  Cell Viability (%), alamar blue: 92%
Huh7.5 cells; 10 μM
  Cell Viability (%), alamar blue: 90%

## CC(C)CN(C)c1nc(N)c(C(=O)NCc2ccsc2)nc1Cl.Cl [ID 148, 3-amino-6-chloro-5-(isobutyl(methyl)amino)-N-(thiophen-3-ylmethyl)pyrazine-2-carboxamide hydrochloride]
2a HCV RNA replicon
  activity at 5 µM: 69%
  activity at 10 µM: 53%
Huh7.5 cells; 5 μM
  Cell Viability (%), alamar blue: 99%
Huh7.5 cells; 10 μM
  Cell Viability (%), alamar blue: 90%

## COc1cc(C)c(NC(=O)c2nc(Cl)c(N(C)CC(C)C)nc2N)cn1 [ID 294, 3-amino-6-chloro-5-(isobutyl(methyl)amino)-N-(6-methoxy-4-methylpyridin-3-yl)pyrazine-2-carboxamide bis(2,2,2-trifluoroacetate)]
2a HCV RNA replicon
  activity at 5 µM: 58%
  activity at 10 µM: 22%
Huh7.5 cells; 5 μM
  Cell Viability (%), alamar blue: 100%
Huh7.5 cells; 10 μM
  Cell Viability (%), alamar blue: 68%

## CC(C)CN(C)c1nc(N)c(C(=O)Nc2nncs2)nc1Cl.Cl [ID 205, 3-amino-6-chloro-5-(isobutyl(methyl)amino)-N-(1,3,4-thiadiazol-2-yl)pyrazine-2-carboxamide hydrochloride]
2a HCV RNA replicon
  activity at 5 µM: 42%
  activity at 10 µM: 17%
Huh7.5 cells; 5 μM
  Cell Viability (%), alamar blue: 88%
Huh7.5 cells; 10 μM
  Cell Viability (%), alamar blue: 67%

## Cc1ccncc1NC(=O)c1cnc(N(C)C(C)C)cn1 [ID 459, 5-(isopropyl(methyl)amino)-N-(4-methylpyridin-3-yl)pyrazine-2-carboxamide 2,2,2-trifluoroacetate]
2a HCV RNA replicon
  activity at 5 µM: 22%
  activity at 10 µM: 11%
Huh7.5 cells; 5 μM
  Cell Viability (%), alamar blue: 64%
Huh7.5 cells; 10 μM
  Cell Viability (%), alamar blue: 65%

## CC(C)CN(C)c1nc(N)c(C(=O)Nc2ccon2)nc1Cl.Cl [ID 200, 3-amino-6-chloro-5-(isobutyl(methyl)amino)-N-(isoxazol-3-yl)pyrazine-2-carboxamide hydrochloride]
2a HCV RNA replicon
  activity at 5 µM: 77%
  activity at 10 µM: 65%
Huh7.5 cells; 5 μM
  Cell Viability (%), alamar blue: 96%
Huh7.5 cells; 10 μM
  Cell Viability (%), alamar blue: 96%

## CC(C)CN(C)c1nc(N)c(C(=O)Nc2ccccc2)nc1Cl [ID 295, 3-amino-6-chloro-5-(isobutyl(methyl)amino)-N-phenylpyrazine-2-carboxamide]
2a HCV RNA replicon
  activity at 5 µM: 65%
  activity at 10 µM: 47%
Huh7.5 cells; 5 μM
  Cell Viability (%), alamar blue: >100%
Huh7.5 cells; 10 μM
  Cell Viability (%), alamar blue: 90%

## Cc1cc(NC(=O)c2nc(Cl)c(N(C)CC(C)C)nc2N)cnc1Cl [ID 291, 3-amino-6-chloro-N-(6-chloro-5-methylpyridin-3-yl)-5-(isobutyl(methyl)amino)pyrazine-2-carboxamide bis(2,2,2-trifluoroacetate)]
2a HCV RNA replicon
  activity at 5 µM: 59%
  activity at 10 µM: 21%
Huh7.5 cells; 5 μM
  Cell Viability (%), alamar blue: 79%
Huh7.5 cells; 10 μM
  Cell Viability (%), alamar blue: 53%

## Cc1ccncc1NC(=O)c1cnc(N(C)CC(C)C)c(Cl)n1 [ID 473, 6-chloro-5-(isobutyl(methyl)amino)-N-(4-methylpyridin-3-yl)pyrazine-2-carboxamide 2,2,2-trifluoroacetate]
2a HCV RNA replicon
  activity at 5 µM: 87%
  activity at 10 µM: 73%
Huh7.5 cells; 5 μM
  Cell Viability (%), alamar blue: 94%
Huh7.5 cells; 10 μM
  Cell Viability (%), alamar blue: 95%

## CC(C)CN(C)c1nc(N)c(C(=O)NCc2cccs2)nc1Cl [ID 150, 3-amino-6-chloro-5-(isobutyl(methyl)amino)-N-(thiophen-2-ylmethyl)pyrazine-2-carboxamide 2,2,2-trifluoroacetate]
2a HCV RNA replicon
  activity at 5 µM: 65%
  activity at 10 µM: 48%
Huh7.5 cells; 5 μM
  Cell Viability (%), alamar blue: >100%
Huh7.5 cells; 10 μM
  Cell Viability (%), alamar blue: 77%

## Cc1ccncc1NC(=O)c1nc(Cl)c(N(C)Cc2ccccc2)nc1N [ID 424, 3-amino-5-(benzyl(methyl)amino)-6-chloro-N-(4-methylpyridin-3-yl)pyrazine-2-carboxamide 2,2,2-trifluoroacetate]
2a HCV RNA replicon
  activity at 5 µM: 70%
  activity at 10 µM: 39%
Huh7.5 cells; 5 μM
  Cell Viability (%), alamar blue: 98%
Huh7.5 cells; 10 μM
  Cell Viability (%), alamar blue: 78%

## CCN(C)c1nc(N)c(C(=O)Nc2cnccc2C)nc1Cl [ID 469, 3-amino-6-chloro-5-(ethyl(methyl)amino)-N-(4-methylpyridin-3-yl)pyrazine-2-carboxamide 2,2,2-trifluoroacetate]
2a HCV RNA replicon
  activity at 5 µM: 65%
  activity at 10 µM: 42%
Huh7.5 cells; 5 μM
  Cell Viability (%), alamar blue: 75%
Huh7.5 cells; 10 μM
  Cell Viability (%), alamar blue: 71%

## CC(C)CN(C)c1nc(N)c(C(=O)NCc2nccs2)nc1Cl.Cl [ID 149, 3-amino-6-chloro-5-(isobutyl(methyl)amino)-N-(thiazol-2-ylmethyl)pyrazine-2-carboxamide hydrochloride]
2a HCV RNA replicon
  activity at 5 µM: 68%
  activity at 10 µM: 50%
Huh7.5 cells; 5 μM
  Cell Viability (%), alamar blue: >100%
Huh7.5 cells; 10 μM
  Cell Viability (%), alamar blue: >100%

## Cc1cc(NC(=O)c2nc(Cl)c(N(C)CC(C)C)nc2N)no1.Cl [ID 236, 3-amino-6-chloro-5-(isobutyl(methyl)amino)-N-(5-methylisoxazol-3-yl)pyrazine-2-carboxamide hydrochloride]
2a HCV RNA replicon
  activity at 5 µM: 92%
  activity at 10 µM: 51%
Huh7.5 cells; 5 μM
  Cell Viability (%), alamar blue: 96%
Huh7.5 cells; 10 μM
  Cell Viability (%), alamar blue: 78%
